Source: patent US20250147039A1, “Compounds for complexation of rare earth elements and/or s-, p-, d- block metals, their coordination compounds, peptide conjugates, method of their preparation and use thereof” (USTAV ORGANICKE CHEMIE A BIOCHEMIE AV CR V.V.I., priority 2021, published 2025)

What was measured:
[1] = Formation of 1,5-cz-[Ln(Lig)] from Lig and Ln^III ions (metal dependent click-zip), MOPS/NaOH buffer pH 7.0, analytical HPLC (Charts 1, 2); details: MOPS/NaOH buffer pH 7.0
[2] = Formation of 1,5-cz-[M(Lig)] from Lig and M^III ions (metal dependent click-zip) (Charts 4, 5); type: physicochemical; details: MOPS/NaOH buffer pH 7.0, TD728, TD827 in 50% i-PrOH; for conversion to 1,5-cz-[M(Lig)], Y^III: TD714 sum of two diastereoisomers

Row | SMILES | conversion to 1,5-cz-[Ln(Lig)], Ce^III ([1]; after 1 week at 80° C.) | conversion to 1,5-cz-[Ln(Lig)], Ce^III ([1]; after 1 hour at 80° C.) | conversion to 1,5-cz-[Ln(Lig)], Dy^III ([1]; after 1 week at 80° C.) | conversion to 1,5-cz-[Ln(Lig)], Dy^III ([1]; after 1 hour at 80° C.) | conversion to 1,5-cz-[Ln(Lig)], Er^III ([1]; after 1 week at 80° C.) | conversion to 1,5-cz-[Ln(Lig)], Er^III ([1]; after 1 hour at 80° C.) | conversion to 1,5-cz-[Ln(Lig)], Eu^III ([1]; after 1 week at 80° C.) | conversion to 1,5-cz-[Ln(Lig)], Eu^III ([1]; after 1 hour at 80° C.) | conversion to 1,5-cz-[Ln(Lig)], Gd^III ([1]; after 1 week at 80° C.) | conversion to 1,5-cz-[Ln(Lig)], Gd^III ([1]; after 1 hour at 80° C.) | conversion to 1,5-cz-[Ln(Lig)], Ho^III ([1]; after 1 week at 80° C.) | conversion to 1,5-cz-[Ln(Lig)], Ho^III ([1]; after 1 hour at 80° C.) | conversion to 1,5-cz-[Ln(Lig)], La^III ([1]; after 1 week at 80° C.) | conversion to 1,5-cz-[Ln(Lig)], La^III ([1]; after 1 hour at 80° C.) | conversion to 1,5-cz-[Ln(Lig)], Lu^III ([1]; after 1 week at 80° C.) | conversion to 1,5-cz-[Ln(Lig)], Lu^III ([1]; after 1 hour at 80° C.) | conversion to 1,5-cz-[Ln(Lig)], Nd^III ([1]; after 1 week at 80° C.) | conversion to 1,5-cz-[Ln(Lig)], Nd^III ([1]; after 1 hour at 80° C.) | conversion to 1,5-cz-[Ln(Lig)], Pr^III ([1]; after 1 week at 80° C.) | conversion to 1,5-cz-[Ln(Lig)], Pr^III ([1]; after 1 hour at 80° C.) | other results
1 | [N-]=[N+]=NCc1cccc(CN2CCN(CC(=O)O)CCN(Cc3cccc(C#CC45CC6CC(CC(C6)C4)C5)n3)CCN(CC(=O)O)CC2)n1 [TD992] | 20% | 0% | 81% | 1% | 95% | 2% | 59% | 1% | 61% | 1% | 89% | 2% | 22% | 0% | 99% | 6% | 40% | 0% | 33% | 0% | conversion to 1,5-cz-[Ln(Lig)], Sm^III ([1]; after 1 week at 80° C.): 55%; conversion to 1,5-cz-[Ln(Lig)], Sm^III ([1]; after 1 hour at 80° C.): 1%; conversion to 1,5-cz-[Ln(Lig)], Tb^III ([1]; after 1 week at 80° C.): 73%; conversion to 1,5-cz-[Ln(Lig)], Tb^III ([1]; after 1 hour at 80° C.): 1%; conversion to 1,5-cz-[Ln(Lig)], Tm^III ([1]; after 1 week at 80° C.): 98%; conversion to 1,5-cz-[Ln(Lig)], Tm^III ([1]; after 1 hour at 80° C.): 4%; conversion to 1,5-cz-[Ln(Lig)], Yb^III ([1]; after 1 week at 80° C.): 99%; conversion to 1,5-cz-[Ln(Lig)], Yb^III ([1]; after 1 hour at 80° C.): 5%; conversion to 1,5-cz-[M(Lig)], Sc^III ([2]; 1 week at 80° C.): 2%; conversion to 1,5-cz-[M(Lig)], Y^III ([2]; 1 week at 80° C.): 87%; conversion to 1,5-cz-[M(Lig)], Sc^III ([2]; 1 hour at 80° C.): 0%; conversion to 1,5-cz-[M(Lig)], Y^III ([2]; 1 hour at 80° C.): 2%
2 | C#Cc1cccc(CN2CCN(CC(=O)O)CCN(Cc3cc(C(F)(F)F)cc(CN=[N+]=[N-])n3)CCN(CC(=O)O)CC2)n1 [TD1063] | 1% | 1% | 86% | 15% | 93% | 33% | 73% | 4% | 74% | 5% | 90% | 22% | 5% | 0% | 95% | 54% | 52% | 2% | 35% | 1% | conversion to 1,5-cz-[Ln(Lig)], Sm^III ([1]; after 1 week at 80° C.): 57%; conversion to 1,5-cz-[Ln(Lig)], Sm^III ([1]; after 1 hour at 80° C.): 3%; conversion to 1,5-cz-[Ln(Lig)], Tb^III ([1]; after 1 week at 80° C.): 83%; conversion to 1,5-cz-[Ln(Lig)], Tb^III ([1]; after 1 hour at 80° C.): 10%; conversion to 1,5-cz-[Ln(Lig)], Tm^III ([1]; after 1 week at 80° C.): 93%; conversion to 1,5-cz-[Ln(Lig)], Tm^III ([1]; after 1 hour at 80° C.): 45%; conversion to 1,5-cz-[Ln(Lig)], Yb^III ([1]; after 1 week at 80° C.): 95%; conversion to 1,5-cz-[Ln(Lig)], Yb^III ([1]; after 1 hour at 80° C.): 53%; conversion to 1,5-cz-[M(Lig)], Sc^III ([2]; 1 week at 80° C.): 8%; conversion to 1,5-cz-[M(Lig)], Y^III ([2]; 1 week at 80° C.): 91%; conversion to 1,5-cz-[M(Lig)], Sc^III ([2]; 1 hour at 80° C.): 1%; conversion to 1,5-cz-[M(Lig)], Y^III ([2]; 1 hour at 80° C.): 20%

More lines, main results first:

Row | conversion to 1,5-cz-[Ln(Lig)], Ce^III ([1]; after 1 week at 80° C.) | conversion to 1,5-cz-[Ln(Lig)], Ce^III ([1]; after 1 hour at 80° C.) | conversion to 1,5-cz-[Ln(Lig)], Dy^III ([1]; after 1 week at 80° C.) | conversion to 1,5-cz-[Ln(Lig)], Dy^III ([1]; after 1 hour at 80° C.) | conversion to 1,5-cz-[Ln(Lig)], Er^III ([1]; after 1 week at 80° C.) | conversion to 1,5-cz-[Ln(Lig)], Er^III ([1]; after 1 hour at 80° C.) | conversion to 1,5-cz-[Ln(Lig)], Eu^III ([1]; after 1 week at 80° C.) | conversion to 1,5-cz-[Ln(Lig)], Eu^III ([1]; after 1 hour at 80° C.) | conversion to 1,5-cz-[Ln(Lig)], Gd^III ([1]; after 1 week at 80° C.) | conversion to 1,5-cz-[Ln(Lig)], Gd^III ([1]; after 1 hour at 80° C.) | conversion to 1,5-cz-[Ln(Lig)], Ho^III ([1]; after 1 week at 80° C.) | conversion to 1,5-cz-[Ln(Lig)], Ho^III ([1]; after 1 hour at 80° C.) | conversion to 1,5-cz-[Ln(Lig)], La^III ([1]; after 1 week at 80° C.) | conversion to 1,5-cz-[Ln(Lig)], La^III ([1]; after 1 hour at 80° C.) | conversion to 1,5-cz-[Ln(Lig)], Lu^III ([1]; after 1 week at 80° C.) | conversion to 1,5-cz-[Ln(Lig)], Lu^III ([1]; after 1 hour at 80° C.) | conversion to 1,5-cz-[Ln(Lig)], Nd^III ([1]; after 1 week at 80° C.) | conversion to 1,5-cz-[Ln(Lig)], Nd^III ([1]; after 1 hour at 80° C.) | conversion to 1,5-cz-[Ln(Lig)], Pr^III ([1]; after 1 week at 80° C.) | conversion to 1,5-cz-[Ln(Lig)], Pr^III ([1]; after 1 hour at 80° C.) | SMILES | other results
3 | 4% | 0% | 65% | 1% | 88% | 2% | 36% | 0% | 40% | 0% | 77% | 2% | 5% | 0% | 97% | 5% | 16% | 0% | 10% | 0% | [N-]=[N+]=NCc1cccc(CN2CCN(CC(=O)O)CCN(Cc3cccc(C#CC4CC4)n3)CCN(CC(=O)O)CC2)n1 [TD943] | conversion to 1,5-cz-[Ln(Lig)], Sm^III ([1]; after 1 week at 80° C.): 29%; conversion to 1,5-cz-[Ln(Lig)], Sm^III ([1]; after 1 hour at 80° C.): 0%; conversion to 1,5-cz-[Ln(Lig)], Tb^III ([1]; after 1 week at 80° C.): 56%; conversion to 1,5-cz-[Ln(Lig)], Tb^III ([1]; after 1 hour at 80° C.): 1%; conversion to 1,5-cz-[Ln(Lig)], Tm^III ([1]; after 1 week at 80° C.): 94%; conversion to 1,5-cz-[Ln(Lig)], Tm^III ([1]; after 1 hour at 80° C.): 3%; conversion to 1,5-cz-[Ln(Lig)], Yb^III ([1]; after 1 week at 80° C.): 97%; conversion to 1,5-cz-[Ln(Lig)], Yb^III ([1]; after 1 hour at 80° C.): 3%; conversion to 1,5-cz-[M(Lig)], Sc^III ([2]; 1 week at 80° C.): 5%; conversion to 1,5-cz-[M(Lig)], Y^III ([2]; 1 week at 80° C.): 74%; conversion to 1,5-cz-[M(Lig)], Sc^III ([2]; 1 hour at 80° C.): 0%; conversion to 1,5-cz-[M(Lig)], Y^III ([2]; 1 hour at 80° C.): 1%
4 | 3% | 0% | 51% | 0% | 84% | 1% | 19% | 0% | 23% | 0% | 68% | 1% | 4% | 0% | 94% | 2% | 8% | 0% | 6% | 0% | [N-]=[N+]=NCc1cccc(CN2CCN(CC(=O)O)CCN(Cc3cccc(C#Cc4ccccc4)n3)CCN(CC(=O)O)CC2)n1 [TD944] | conversion to 1,5-cz-[Ln(Lig)], Sm^III ([1]; after 1 week at 80° C.): 16%; conversion to 1,5-cz-[Ln(Lig)], Sm^III ([1]; after 1 hour at 80° C.): 0%; conversion to 1,5-cz-[Ln(Lig)], Tb^III ([1]; after 1 week at 80° C.): 37%; conversion to 1,5-cz-[Ln(Lig)], Tb^III ([1]; after 1 hour at 80° C.): 0%; conversion to 1,5-cz-[Ln(Lig)], Tm^III ([1]; after 1 week at 80° C.): 93%; conversion to 1,5-cz-[Ln(Lig)], Tm^III ([1]; after 1 hour at 80° C.): 1%; conversion to 1,5-cz-[Ln(Lig)], Yb^III ([1]; after 1 week at 80° C.): 95%; conversion to 1,5-cz-[Ln(Lig)], Yb^III ([1]; after 1 hour at 80° C.): 2%; conversion to 1,5-cz-[M(Lig)], Sc^III ([2]; 1 week at 80° C.): 4%; conversion to 1,5-cz-[M(Lig)], Y^III ([2]; 1 week at 80° C.): 63%; conversion to 1,5-cz-[M(Lig)], Sc^III ([2]; 1 hour at 80° C.): 0%; conversion to 1,5-cz-[M(Lig)], Y^III ([2]; 1 hour at 80° C.): 1%
5 | 4% | 0% | 70% | 10% | 88% | 26% | 28% | 3% | 33% | 3% | 79% | 16% | 4% | 0% | 98% | 63% | 11% | 1% | 10% | 0% | CC(C)(N)C#Cc1cccc(CN2CCN(CC(=O)O)CCN(Cc3cc(-c4ccccc4)cc(CN=[N+]=[N-])n3)CCN(CC(=O)O)CC2)n1 [TD1054] | conversion to 1,5-cz-[Ln(Lig)], Sm^III ([1]; after 1 week at 80° C.): 22%; conversion to 1,5-cz-[Ln(Lig)], Sm^III ([1]; after 1 hour at 80° C.): 2%; conversion to 1,5-cz-[Ln(Lig)], Tb^III ([1]; after 1 week at 80° C.): 55%; conversion to 1,5-cz-[Ln(Lig)], Tb^III ([1]; after 1 hour at 80° C.): 6%; conversion to 1,5-cz-[Ln(Lig)], Tm^III ([1]; after 1 week at 80° C.): 94%; conversion to 1,5-cz-[Ln(Lig)], Tm^III ([1]; after 1 hour at 80° C.): 39%; conversion to 1,5-cz-[Ln(Lig)], Yb^III ([1]; after 1 week at 80° C.): 97%; conversion to 1,5-cz-[Ln(Lig)], Yb^III ([1]; after 1 hour at 80° C.): 53%; conversion to 1,5-cz-[M(Lig)], Sc^III ([2]; 1 week at 80° C.): 61%; conversion to 1,5-cz-[M(Lig)], Y^III ([2]; 1 week at 80° C.): 80%; conversion to 1,5-cz-[M(Lig)], Sc^III ([2]; 1 hour at 80° C.): 4%; conversion to 1,5-cz-[M(Lig)], Y^III ([2]; 1 hour at 80° C.): 16%
